Laboratory results taken from patent US20130029981A1, “COMPOUNDS, COMPOSITIONS, AND METHODS FOR CONTROLLING BIOFILMS” (Katholieke Universiteit Leuven, priority 2009, published 2013).
pIC50: −log10 of the molar value.

Legend:
S. Typhimurium ATCC14028 [1] = assay: Static peg assay for prevention of biofilm formation (Calgary device, crystal violet); type: cell-based, Salmonella Typhimurium
How it was run: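 Calgary 96-peg device, ca. 10^6 cells of ATCC14028 per well in TSB 1/20 for 24 h at 25° C (or 48 h at 16° C, medium and compound renewed at 24 h), or in CFA broth for 24 h at 37° C, static, with two-fold compound dilutions. Crystal violet stain, acetic acid extraction, OD570. IC50 from 2–3 independent experiments.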

[2] = tested on: Pseudomonas aeruginosa PA14; assay: as above; type: cell-based; details: P. aeruginosa PA14, 25° C.; read-out: P. aeruginosa IC50 (biofilm formation)
How it was run: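 P. aeruginosa PA14 overnight TSB culture diluted 1:100 into broth with two-fold compound dilutions, biofilms grown 24 h static on polystyrene pegs of a Calgary device at 25 °C (TSB 1/20), 30 °C or 37 °C (CFA and/or LBNS). Biofilm quantified by crystal violet, extracted with 30% acetic acid, A570.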

S. Typhimurium ATCC14028 [3] = assay: Bioscreen assay: influence on planktonic growth curve; type: cell-based, Salmonella Typhimurium; details: for Effect on growth at: 40 μM (S. Typhimurium): planktonic growth, 25° C.
Text: (§1) Some of the tested compounds show a concentration range in which biofilm formation is inhibited but no effect on planktonic growth is observed. These compounds are particularly interesting for prevention of biofilm formation since the development of resistance against these compounds is less likely. Table 8 indicates whether the different compounds have an effect on the planktonic growth of the bacteria at the IC50 for biofilm inhibition. To construct Table 8, the effect of the tested compounds on the growth curve of the bacteria was determined at a concentration equal to the IC50 for biofilm inhibition, by using the Bioscreen system available from Oy Growth Curves Ab Ltd). The Bioscreen device from Oy Growth Curves Ab Ltd was used for measuring the influence of the chemical compounds on the planktonic growth of Salmonella Typhimurium and Pseudomonas aeruginosa. The Bioscreen is a computer controlled incubator/reader/shaker that uses 10×10 well microtiter plates and measures light absorbance of each well at a specified wave length in function of time. An overnight culture of S. […] The broth used was TSB 1/20 for the experiments at 16° C. and 25° C. For experiments at 37° C. CFA medium was used for S. […] As a control 3 μl of the appropriate solvent (DMSO or EtOH) was also added to the plate in 3- or 4-fold. The microtiter plate was incubated in the Bioscreen device at 16° C., 25° C. or 37° C. for at least 36 hours, with continious medium shaking. The absorbance of each well was measured at 600 nm each 15 minutes. Excel was used to generate the growth curves for treated the treated wells and the untreated control wells. Some of the compounds show a concentration range in which biofilm formation is inhibited but no effect on the planktonic growth is observed. Table 14 indicates if the different compounds have an effect on the planktonic growth of the bacteria at the IC50 for biofilm inhibition. To construct this table the effect of the compounds on the growth curve of the bacteria was determined at a concentration equal to the IC50 for biofilm inhibtion, by using the Bioscreen system from Oy Growth Curves Ab Ltd.

[4] = tested on: Salmonella Typhimurium ATCC 14028; assay: Antibacterial activity: growth inhibition, OD600 after 24 h (GIC50); type: cell-based; details: 25° C.
Description: Evaluation of antibacterial-inhibitory activity of some substituted 2-amino-1H-imidazoles of the invention was carried out by diluting an overnight culture of Salmonella Typhimurium ATCC 14028 into a liquid medium. 200 μl of the diluted overnight culture was added to each well of a microtiter plate together with different concentrations of the test compound (1/2 dilution series of the compound). After an incubation of 24 hours the optical density at 600 nm of each well was determined with a microtiter plate reader.
Starting from a 40 mM stock solution of each compound in DMSO, two-fold serial dilutions in 100 μl liquid broth per well were prepared in dublicate in sterile transparant microtiter plates. The broth used was TSB 1/20 for measurements at 25° C. and CFA (in case of Salmonella Typhimurium) and LBNS (in case of Pseudomonas aeruginosa) for measurements at 37° C. Subsequently an overnight culture of the bacteria (S. Typhimurium ATCC14028 or P. aeruginosa PA14) was diluted 1/200 into the corresponding liquid broth and 100 μl was added to each well of the microtiterplate resulting in a total amout of 200 μl medium per well. After an incubation of 24 hours the optical density at 600 nm of each well was determined with a microtiter plate reader (VERSAmax, Molecular Devices).
Evaluation of antibacterial-inhibitory activity of some substituted imidazo[1,2-a]pyrimidinium bromide salts of the invention was carried out by diluting an overnight culture of Salmonella Typhimurium ATCC14028 or Pseudomonas aeruginosa PA141/200 into liquid medium. 200 μl of the diluted overnight culture was added to each well of a microtiterplate together with different concentrations of the test compound (1/2 dilution series of the compound). After an incubation of 24 hours the optical density at 600 nm of each well was determined with a microtiter plate reader.

S. Typhimurium ATCC14028 [5] = assay: Bioscreen assay: influence on planktonic growth curve; type: cell-based, Salmonella Typhimurium; set-up: key: x: no influence on planktonic growth at the IC50 for biofilm inhibition; planktonic growth is retarded at the IC50 for biofilm inhibition; details: planktonic growth at the IC50 for biofilm inhibition, 25° C.
Text: as §1, with “Table 14 indicates if the different compounds have an effect on the planktonic growth of the bacteria at the IC50 for biofilm inhibition.” left out

S. Typhimurium SL1344 [6] = assay: Static peg assay for prevention of biofilm formation (Calgary device, crystal violet); type: cell-based; details: Salmonella enterica, SL1344, 16° C., read-out: IC50 biofilm inhibition
Description: After an incubation period of 24 hours at 25° C. or 37° C. or 48 hours at 16° C. the biofilms were visualized by crystal violet staining. […] Biofilm formation assays were carried out at 16° C., 25° C. and 37° C. […] Subsequently, an overnight culture of S. […] The pegged lid was placed on the microtiter plate and the plate was incubated for 48 hours at 16° C. or for 24 hours at 25° C. without shaking. During this incubation period biofilms were formed on the surface of the pegs. In case of the assay at 16° C., after 24 hours the lid was transferred into a new plate with medium and the specific molecules used for testing. […] The remaining attached bacteria were stained for 30 minutes with 200 μl 0.1% (w/v) crystal violet in an isopropanol/methanol/PBS solution (v/v 1:1:18). Excess stain was rinsed off by placing the pegs in a 96-well plate filled with 200 μl distilled water per well. After the pegs were air dried (30 min), the dye bound to the adherent cells was extracted with 30% glacial acetic acid (200 μl). The OD570 of each well was measured using the VERSAmax microtiter plate reader.

S. Typhimurium ATCC14028 [7] = assay: Growth inhibition of planktonic cells in the peg assay plate (OD600); type: cell-based, Salmonella Typhimurium; details: Salmonella enterica, ATCC14028, 16° C.
S. Typhimurium SL1344 [8] = assay: as above; type: cell-based; details: Salmonella enterica, SL1344, 16° C.
S. Typhimurium ATCC14028 [9] = assay: Bioscreen assay: influence on planktonic growth curve; type: cell-based, Salmonella Typhimurium; set-up: key: x: no influence on the planktonic growth at the IC50 for biofilm inhibition; ∘: planktonic growth is retarded at the IC50 for biofilm inhibition; details: planktonic growth at the IC50 for biofilm inhibition, 25° C.
Text: as §1

[10] = S. Typhimurium ATCC 14028, 25° C., read-out: S. Typhimurium IC50 (biofilm formation)
[11] = 25° C., Table 11, read-out: IC50 (biofilm formation)
[12] = 25° C., Table 14, read-out: IC50 biofilm inhibition
[13] = 25° C., Table 19, read-out: IC50 (biofilm formation)
[14] = Salmonella enterica, ATCC14028, 16° C., read-out: IC50 biofilm inhibition

SMILES: CCCCCNc1ncc(-c2ccc(Cl)c(Cl)c2)[nH]1 [Compound 110]
- pIC50 (S. Typhimurium ATCC14028 [1]; [10]): 5.66
- pIC50 [2]: 6.15
- Effect on growth at: 40 μM (S. Typhimurium) (S. Typhimurium ATCC14028 [3]; 40 μM): ∘

SMILES: OC1(c2ccc(F)cc2)C[n+]2cccnc2N1Cc1ccc2c(c1)OCO2.[Br-] (stereo not shown) [Compound 79]
- pIC50 [4]: 3.70
- pIC50 (S. Typhimurium ATCC14028 [1]; [11]): 4.53
- pIC50 (S. Typhimurium ATCC14028 [1]; [12]): 4.53
- pIC50 (S. Typhimurium ATCC14028 [1]; [13]): 4.76
- Effect on growth at 400 μM (S. Typhimurium ATCC14028 [3]; 400 μM): ∘
- Influence on growth (S. Typhimurium ATCC14028 [5]): ∘

SMILES: O=[N+]([O-])c1cccc(C2(O)C[n+]3cccnc3N2C2CCCCCCCCCCC2)c1.[Br-] (stereo not shown) [R1=Cyclododecyl, R3=3-NO2Ph, R4=H, 1-cyclododecyl-2-hydroxy-2-(3-nitrophenyl)-2,3-dihydro-1H-imidazo[1,2-a]pyrimidin-4-ium bromide]
- pIC50 ([4]; Salmonella enterica): 4.92 to 5.22
- pIC50 (S. Typhimurium ATCC14028 [1]; Salmonella enterica, 25° C., Table 11, read-out: IC50 (biofilm formation)): > 5.20
- pIC50 (S. Typhimurium ATCC14028 [1]; Salmonella enterica, 25° C., Table 14, read-out: IC50 biofilm inhibition): > 5.20
- Influence on growth (S. Typhimurium ATCC14028 [5]): ∘

SMILES: Fc1ccc(Sc2ccccc2CNC2=NCCN2)cc1 [Specs3]
- pIC50 (S. Typhimurium ATCC14028 [1]; [14]): 4.66
- pIC50 (S. Typhimurium SL1344 [6]): ~4.50
- pIC50 (S. Typhimurium ATCC14028 [7]): 3.55
- pIC50 (S. Typhimurium SL1344 [8]): 3.55

SMILES: COc1cccc(CCN2c3nccc[n+]3CC2(O)c2ccc(Cl)c(Cl)c2)c1.[Br-] (stereo not shown) [Compound 77]
- pIC50 (S. Typhimurium ATCC14028 [1]; [11]): 5.13
- pIC50 (S. Typhimurium ATCC14028 [1]; [12]): 5.13
- pIC50 (S. Typhimurium ATCC14028 [1]; [13]): 5.14
- Effect on growth at 40 μM (S. Typhimurium ATCC14028 [3]; 40 μM): ∘
- Influence on growth (S. Typhimurium ATCC14028 [9]): x

SMILES: Nc1nc(-c2ccc([N+](=O)[O-])cc2)c[nH]1 [Compound 90]
- pIC50 (S. Typhimurium ATCC14028 [1]; [10]): 4.75
- pIC50 [2]: 4.46
- Effect on growth at: 40 μM (S. Typhimurium) (S. Typhimurium ATCC14028 [3]; 40 μM): ∘

SMILES: c1ccc(Sc2cccc3ccccc23)c(CNC2=NCCN2)c1 [Specs3-4]
- pIC50 (S. Typhimurium ATCC14028 [1]; [14]): 4.78
- pIC50 (S. Typhimurium SL1344 [6]): 4.81
- pIC50 (S. Typhimurium ATCC14028 [7]): 4.08
- pIC50 (S. Typhimurium SL1344 [8]): 4.08

SMILES: c1ccc(Sc2ccc3c(c2)OCO3)c(CNC2=NCCN2)c1 [Specs3-1]
- pIC50 (S. Typhimurium ATCC14028 [1]; [14]): 4.38
- pIC50 (S. Typhimurium SL1344 [6]): ~4.18
- pIC50 (S. Typhimurium ATCC14028 [7]): 3.38
- pIC50 (S. Typhimurium SL1344 [8]): 3.38

SMILES: Fc1ccccc1Sc1ccccc1CNC1=NCCN1 [Specs3-3]
- pIC50 (S. Typhimurium ATCC14028 [1]; [14]): 4.48
- pIC50 (S. Typhimurium SL1344 [6]): 4.17
- pIC50 (S. Typhimurium ATCC14028 [7]): 3.58
- pIC50 (S. Typhimurium SL1344 [8]): 3.58
